Test results taken from patent US20120165346A1, “Compounds and their use as BACE inhibitors” (ASTRAZENECA AB, priority 2010, published 2012).

How the values were obtained:
[1] = test system: sAPPβ release, SH-SY5Y cells; test: sAPPβ release assay; assay type: cell-based; conditions: Homo sapiens, compounds incubated 17 h
Procedure: SH-SY5Y cells were cultured in DMEM/F-12 with Glutamax, 10% FCS and 1% non-essential amino acids and cryopreserved and stored at −140° C. at a concentration of 7.5−9.5×10^6 cells per vial. Thaw cells and seed at a conc. of around 10000 cells/well in DMEM/F-12 with Glutamax, 10% FCS and 1% non-essential amino acids to a 384-well tissue culture treated plate, […] cell susp/well. The cell plates were then incubated for 7-24 h at 37° C., 5% CO2. The cell medium was removed, followed by addition of 30 μL compound diluted in DMEM/F-12 with Glutamax, 10% FCS, 1% non-essential amino acids and 1% PeSt to a final conc. of 1% DMSO. The compounds were incubated with the cells for 17 h (overnight) at 37° C., 5% CO2. Meso Scale Discovery (MSD) plates were used for the detection of sAPPβ release. MSD sAPPβ plates were blocked in 1% BSA in Tris wash buffer (40 μL/well) for 1 h on shake at r.t. and washed 1 time in Tris wash buffer (40 μL/well). 20 μL of medium was transferred to the pre-blocked and washed is MSD sAPPβ microplates, and the cell plates were further used in an ATP assay to measure cytotoxicity. The MSD plates were incubated with shaking at r.t. for 2 h and the media discarded. 10 μL detection antibody was added (1 nM) per well followed by incubation with shaking at r.t. for 2 h and then discarded. 40 μL Read Buffer was added per well and the plates were read in a SECTOR Imager.

[2] = biological target: T1, human β-Secretase (AA 1-AA 460), sBACE-Fc (Homo sapiens, UniProt P56817); test: TR-FRET assay; assay type: biochemical; conditions: enzyme 2.7 μg/ml, substrate 100 nM, pH4.5, 15 minutes at r.t.
T1 construct: soluble part of the human β-Secretase (AA 1-AA 460) was cloned; Fc domain of IgG1; made in house
Procedure: The β-secretase enzyme used in the TR-FRET is prepared as follows:
(§1) The cDNA for the soluble part of the human β-Secretase (AA 1-AA 460) was cloned using the ASP2-Fc10-1-IRES-GFP-neoK mammalian expression vector. The gene was fused to the Fc domain of IgG1 (affinity tag) and stably cloned into HEK 293 cells.
The enzyme (truncated form) was diluted to 6 μg/mL (stock 1.3 mg/mL) and the substrate (Europium)[…](Qsy7) to 200 nM (stock 120 μM) in reaction buffer (NaAcetate, is chaps, triton x-100, EDTA pH4.5). The robotic systems Biomek FX and Velocity 11 were used for all liquid handling and the enzyme and substrate solutions were kept on ice until they were placed in the robotic system. Enzyme (9 μA) was added to the plate then 1 μA of compound in dimethylsulphoxide was added, mixed and pre-incubated for 10 minutes. Substrate (10 μA) was then added, mixed and the reaction proceeded for 15 minutes at r.t. The reaction was stopped with the addition of Stop solution (7 μl, NaAcetate, pH 9). The fluorescence of the product was measured on a Victor II plate reader with an excitation wavelength of 340 nm and an emission wavelength of 615 nm. The assay was performed in a Costar 384 well round bottom, low volume, non-binding surface plate (Corning #3676). […] The dimethylsulphoxide control, instead of test compound, defined the 100% activity level and 0% activity was defined by wells lacking enzyme (replaced with reaction buffer).

[3] = biological target: T1, human β-Secretase (AA 1-AA 460), sBACE-Fc; test: Diluted TR-FRET assay; assay type: biochemical; conditions: footnote a: diluted FRET assay, 50 times less enzyme, 6.5 h reaction time at r.t.; read-out: IC50 in TR-FRET assay (IC50 from the diluted FRET assay)
Procedure: as §1
The robotic systems Biomek FX and Velocity 11 were used for all liquid handling and the enzyme and substrate solutions were kept on ice until they were placed in the robotic system. Enzyme (9 μA) was added to the plate then 1 μA of compound in dimethylsulphoxide was added, mixed and pre-incubated for 10 minutes. Substrate (10 μA) was then added, mixed and the reaction proceeded for 15 minutes at r.t. The reaction was stopped with the addition of Stop solution (7 μl, NaAcetate, pH 9). […] The dimethylsulphoxide control, instead of test compound, defined the 100% activity level and 0% activity was defined by wells lacking enzyme (replaced with reaction buffer).

T1 sequence (P56817 22-460): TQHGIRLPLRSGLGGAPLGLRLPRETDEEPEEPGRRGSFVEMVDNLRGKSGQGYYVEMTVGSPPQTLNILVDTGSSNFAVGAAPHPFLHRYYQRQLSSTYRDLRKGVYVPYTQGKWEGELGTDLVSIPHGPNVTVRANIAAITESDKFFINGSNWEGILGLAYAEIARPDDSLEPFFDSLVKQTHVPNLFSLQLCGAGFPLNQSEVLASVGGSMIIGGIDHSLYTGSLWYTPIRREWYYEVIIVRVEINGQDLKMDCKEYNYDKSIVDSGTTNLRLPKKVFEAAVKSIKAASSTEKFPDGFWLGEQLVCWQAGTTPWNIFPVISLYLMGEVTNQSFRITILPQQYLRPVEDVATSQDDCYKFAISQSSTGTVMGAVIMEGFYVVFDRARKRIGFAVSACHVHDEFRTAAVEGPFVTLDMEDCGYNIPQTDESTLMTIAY

SMILES | IC50 [1] [nM] | IC50 [2] [nM] | IC50 [3] [nM]
Cc1cc(C2(c3cccc(-c4cncc(F)c4)c3)N=C(N)c3c(F)cccc32)cn(C)c1=O (centres unmarked) [Example 19, 5-(3-Amino-4-fluoro-1-(3-(5-fluoropyridin-3-yl)phenyl)-1H-isoindol-1-yl)-1,3-dimethylpyridin-2(1H)-one] | 3 | 61 | 
Cc1cc(C2(c3cccc(-c4cncc(Cl)c4)c3)N=C(N)c3c(F)cccc32)cn(C)c1=O (centres unmarked) [Example 18, 5-(3-Amino-1-(3-(5-chloropyridin-3-yl)phenyl)-4-fluoro-1H-isoindol-1-yl)-1,3-dimethylpyridin-2(1H)-one] | 8 | 26 | 
Cn1cc(C2(c3cccc(-c4cncc(F)c4)c3)N=C(N)c3c(F)cccc32)cc(C(F)(F)F)c1=O (centres unmarked) [Example 12, 5-(3-Amino-4-fluoro-1-(3-(5-fluoropyridin-3-yl)phenyl)-1H-isoindol-1-yl)-1-methyl-3-(trifluoromethyl)pyridin-2(1H)-one] | 8 | 62 | 
Cc1cc(C2(c3cccc(-c4cncc(C#N)c4)c3)N=C(N)c3c(F)cccc32)cn(C(C)C)c1=O (centres unmarked) [Example 5, 5-(3-(3-Amino-4-fluoro-1-(1-isopropyl-5-methyl-6-oxo-1,6-dihydropyridin-3-yl)-1H-isoindol-1-yl)phenyl)nicotinonitrile] | 10 | 58 | 
COc1cncc(-c2cccc(C3(c4cc(C(F)(F)F)c(=O)n(C)c4)N=C(N)c4c(F)cccc43)c2)c1 (centres unmarked) [Example 11, 5-(3-Amino-4-fluoro-1-(3-(5-methoxypyridin-3-yl)phenyl)-1H-isoindol-1-yl)-1-methyl-3-(trifluoromethyl)pyridin-2(1H)-one] | 46 | 54 | 
CC#Cc1cncc(-c2cccc([C@@]3(c4cc(C)c(=O)n(C)c4)N=C(N)c4c(F)cccc43)c2)c1 [Example 1, (R)-5-(3-Amino-4-fluoro-1-(3-(5-(prop-1-ynyl)pyridin-3-yl)phenyl)-1H-isoindol-1-yl)-1,3-dimethylpyridin-2(1H)-one] | 2 |  | 6
CC#Cc1cncc(-c2cc(C3(c4cc(C)c(=O)n(CC)c4)N=C(N)c4c(F)cccc43)ccn2)c1 (single isomer, unassigned) [Example 26a, 5-(3-amino-4-fluoro-1-(5′-(prop-1-ynyl)-2,3′-bipyridin-4-yl)-1H-isoindol-1-yl)-1-ethyl-3-methylpyridin-2(1H)-one] |  | 8350 | 
COc1cncc(-c2cccc(C3(c4cc(C)c(=O)n(C)c4)N=C(N)c4c(F)cccc43)c2)c1 (centres unmarked) [Example 20, 5-(3-amino-4-fluoro-1-(3-(5-methoxypyridin-3-yl)phenyl)-1H-isoindol-1-yl)-1,3-dimethylpyridin-2(1H)-one] | 6 | 31 | 
CCn1cc(C2(c3cccc(-c4cncc(C#N)c4)c3)N=C(N)c3c(F)cccc32)cc(C)c1=O (centres unmarked) [Example 8, 5-(3-(3-Amino-1-(1-ethyl-5-methyl-6-oxo-1,6-dihydropyridin-3-yl)-4-fluoro-1H-isoindol-1-yl)phenyl)nicotinonitrile] | 2 |  | 8
Cc1cc(C2(c3cccc(-c4cncc(C#N)c4)c3)N=C(N)c3c(F)cccc32)cn(C)c1=O (centres unmarked) [Example 17, 5-(3-(3-Amino-1-(1,5-dimethyl-6-oxo-1,6-dihydropyridin-3-yl)-4-fluoro-1H-isoindol-1-yl)phenyl)nicotinonitrile] | 17 | 66 | 
CCn1cc(C2(c3cccc(-c4cncc(F)c4)c3)N=C(N)c3c(F)cccc32)cc(C(F)F)c1=O (centres unmarked) [Example 22, 5-(3-Amino-4-fluoro-1-(3-(5-fluoropyridin-3-yl)phenyl)-1H-isoindol-1-yl)-3-(difluoromethyl)-1-ethylpyridin-2(1H)-one] | 9 | 70 | 
Cc1cc(C2(c3cccc(-c4cncc(F)c4)c3)N=C(N)c3c(F)cccc32)cn(C(C)C)c1=O (centres unmarked) [Example 7, 5-(3-Amino-4-fluoro-1-(3-(5-fluoropyridin-3-yl)phenyl)-1H-isoindol-1-yl)-1-isopropyl-3-methylpyridin-2(1H)-one] | 4 | 38 | 
CC#Cc1cccc(-c2cccc([C@@]3(c4cc(C)c(=O)n(CC)c4)N=C(N)c4c(F)cccc43)c2)n1 [Example 24, (R)-5-(3-Amino-4-fluoro-1-(3-(6-(prop-1-ynyl)pyridin-2-yl)phenyl)-1H-isoindol-1-yl)-1-ethyl-3-methylpyridin-2(1H)-one] | 22 | 140 | 
CC#Cc1ccnc(-c2cccc([C@@]3(c4cc(C)c(=O)n(CC)c4)N=C(N)c4c(F)cccc43)c2)c1 [Example 25, (R)-5-(3-Amino-4-fluoro-1-(3-(4-(prop-1-ynyl)pyridin-2-yl)phenyl)-1H-isoindol-1-yl)-1-ethyl-3-methylpyridin-2(1H)-one] | 2 |  | 5
Cc1cc(C2(c3ccnc(-c4cncc(Cl)c4)c3)N=C(N)c3c(F)cccc32)cn(C)c1=O (centres unmarked) [Example 15, 5-(3-Amino-1-(5′-chloro-2,3′-bipyridin-4-yl)-4-fluoro-1H-isoindol-1-yl)-1,3-dimethylpyridin-2(1H)-one] | 14 | 104 | 
Cn1cc(C2(c3cccc(-c4cncnc4)c3)N=C(N)c3c(F)cccc32)cc(C(F)(F)F)c1=O (centres unmarked) [Example 13, 5-(3-Amino-4-fluoro-1-(3-(pyrimidin-5-yl)phenyl)-1H-isoindol-1-yl)-1-methyl-3-(trifluoromethyl)pyridin-2(1H)-one] | 24 | 81 | 
CCn1cc([C@]2(c3cccc(-c4cncc(C)c4F)c3)N=C(N)c3c(F)cccc32)cc(C)c1=O [Example 4, (R)-5-(3-Amino-4-fluoro-1-(3-(4-fluoro-5-methylpyridin-3-yl)phenyl)-1H-isoindol-1-yl)-1-ethyl-3-methylpyridin-2(1H)-one] | 55 | 51 | 
CC#Cc1cncc(-c2cc(C3(c4cc(CC)c(=O)n(CC)c4)N=C(N)c4c(F)cccc43)ccn2)c1 (centres unmarked) [Example 16, 5-(3-Amino-4-fluoro-1-(5′-(prop-1-ynyl)-2,3′-bipyridin-4-yl)-1H-isoindol-1-yl)-1,3-diethylpyridin-2(1H)-one] | 1 | 59 | 
Cc1cc(C2(c3cccc(-c4cncnc4)c3)N=C(N)c3c(F)cccc32)cn(C)c1=O (centres unmarked) [Example 14, 5-(3-Amino-4-fluoro-1-(3-(pyrimidin-5-yl)phenyl)-1H-isoindol-1-yl)-1,3-dimethylpyridin-2(1H)-one] | 11 | 58 | 
CC#Cc1cncc(-c2cc(C3(c4cc(C)c(=O)n(CC)c4)N=C(N)c4c(F)cccc43)ccn2)c1 (centres unmarked) [Example 2, 5-(3-Amino-4-fluoro-1-(5′-(prop-1-ynyl)-2,3′-bipyridin-4-yl)-1H-isoindol-1-yl)-1-ethyl-3-methylpyridin-2(1H)-one] | 2 | 57 | 
Cn1cc(C2(c3cccc(-c4cncc(C#N)c4)c3)N=C(N)c3c(F)cccc32)cc(C(F)(F)F)c1=O (centres unmarked) [Example 10, 5-(3-(3-Amino-4-fluoro-1-(1-methyl-6-oxo-5-(trifluoromethyl)-1,6-dihydropyridin-3-yl)-1H-isoindol-1-yl)phenyl)nicotinonitrile] | 20 | 89 | 
